Molecules are shown by their SMILES. Where two headings read alike, the source gives them in different places.

In one assay the target is T1, hDHFR (Homo sapiens, UniProt P00374).
T1 sequence (P00374 1-187): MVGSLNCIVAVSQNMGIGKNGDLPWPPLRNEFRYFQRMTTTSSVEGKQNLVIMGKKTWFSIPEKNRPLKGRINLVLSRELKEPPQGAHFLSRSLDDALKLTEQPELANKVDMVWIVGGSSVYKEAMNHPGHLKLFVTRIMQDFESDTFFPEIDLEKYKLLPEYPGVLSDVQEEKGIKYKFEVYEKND
As to the kind of experiment: biochemical.

The target of another assay is T2, TbPTR1 (Trypanosoma brucei brucei, UniProt O76290).
T2 sequence (O76290 1-268): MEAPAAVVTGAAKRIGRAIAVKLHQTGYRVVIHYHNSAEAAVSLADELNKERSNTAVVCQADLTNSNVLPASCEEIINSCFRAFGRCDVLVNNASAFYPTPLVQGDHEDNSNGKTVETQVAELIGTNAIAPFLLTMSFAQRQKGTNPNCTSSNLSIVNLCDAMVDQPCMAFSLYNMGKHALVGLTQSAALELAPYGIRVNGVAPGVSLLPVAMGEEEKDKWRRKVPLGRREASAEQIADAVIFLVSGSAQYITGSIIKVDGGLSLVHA
As to the kind of experiment: TbPTR1 inhibition assay.

Assay [1] concerns L. infantum promastigotes. As to the kind of experiment: L. infantum promastigotes viability assay. Conditions: Leishmania infantum, 72 h, read-out: L. infantum EC50 (μM). It is filed as cell-based, L. infantum MHOM/TN/80/IPT1.
The target in the next assay is hTS (Homo sapiens, UniProt P04818). Nature of the assay: hTS inhibition assay. It is filed as biochemical.
In another assay the target is TbDHFR (Trypanosoma brucei brucei, UniProt Q27783). Nature of the assay: biochemical.
In assay [2] the test system is T. brucei bloodstream forms. As to the kind of experiment: Activity toward T. brucei bloodstream forms. The assay is classed as cell-based, T. brucei brucei Lister 427. Conditions: for EC50: Trypanosoma brucei, 72 h.
In the next assay the target is TbTS (Trypanosoma brucei brucei, UniProt Q27783). As to the kind of experiment: TbDHFR-TS inhibition assay versus the TS domain. The assay is classed as biochemical.
In assay [3] the test system is T. brucei. Particulars: read-out: growth of parasites EC50; mean value from four diverse culture media; cited from earlier work.
In assay [4] the test system is T. brucei. Particulars: read-out: T. brucei EC50; cited from earlier work.
The target of a further assay is LmDHFR (Leishmania major, UniProt P07382). As to the kind of experiment: LmDHFR inhibition assay. It is filed as biochemical, L. major.
The target in a further assay is TcDHFR (Trypanosoma cruzi, UniProt Q27793). Nature of the assay: TcDHFR inhibition assay. It is filed as biochemical, T. cruzi.
[5] abbreviates: read-out: T. brucei EC50 (μM) folate deficiency.

Sequence of TbTS (Q27783 whole entry, the tested form may be a part): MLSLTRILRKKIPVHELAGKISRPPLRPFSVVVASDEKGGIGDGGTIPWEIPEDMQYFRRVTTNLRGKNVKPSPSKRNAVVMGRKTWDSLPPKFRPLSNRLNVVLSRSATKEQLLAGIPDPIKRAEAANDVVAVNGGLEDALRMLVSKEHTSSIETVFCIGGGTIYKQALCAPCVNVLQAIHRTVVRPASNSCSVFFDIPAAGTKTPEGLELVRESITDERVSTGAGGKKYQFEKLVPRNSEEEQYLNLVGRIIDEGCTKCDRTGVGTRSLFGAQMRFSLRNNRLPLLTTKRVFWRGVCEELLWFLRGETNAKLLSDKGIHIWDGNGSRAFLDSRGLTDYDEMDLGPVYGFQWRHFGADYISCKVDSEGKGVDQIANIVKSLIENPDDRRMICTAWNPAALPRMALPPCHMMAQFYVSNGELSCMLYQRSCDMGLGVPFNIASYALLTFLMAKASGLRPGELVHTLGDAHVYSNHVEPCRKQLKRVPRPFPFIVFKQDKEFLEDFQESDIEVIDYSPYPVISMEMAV
Sequence of TbDHFR (Q27783 whole entry): as the sequence (Q27783 whole entry, the tested form may be a part) above
Sequence of hTS (P04818 whole entry): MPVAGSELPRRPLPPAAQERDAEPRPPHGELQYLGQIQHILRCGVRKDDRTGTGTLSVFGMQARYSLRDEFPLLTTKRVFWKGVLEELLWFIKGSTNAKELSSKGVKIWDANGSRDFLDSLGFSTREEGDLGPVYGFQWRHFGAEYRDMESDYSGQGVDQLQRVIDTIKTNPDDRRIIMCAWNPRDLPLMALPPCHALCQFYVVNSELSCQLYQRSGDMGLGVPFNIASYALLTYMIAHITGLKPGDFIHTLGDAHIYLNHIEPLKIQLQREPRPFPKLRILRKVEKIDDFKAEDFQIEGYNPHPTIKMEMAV
Sequence of LmDHFR (P07382 whole entry): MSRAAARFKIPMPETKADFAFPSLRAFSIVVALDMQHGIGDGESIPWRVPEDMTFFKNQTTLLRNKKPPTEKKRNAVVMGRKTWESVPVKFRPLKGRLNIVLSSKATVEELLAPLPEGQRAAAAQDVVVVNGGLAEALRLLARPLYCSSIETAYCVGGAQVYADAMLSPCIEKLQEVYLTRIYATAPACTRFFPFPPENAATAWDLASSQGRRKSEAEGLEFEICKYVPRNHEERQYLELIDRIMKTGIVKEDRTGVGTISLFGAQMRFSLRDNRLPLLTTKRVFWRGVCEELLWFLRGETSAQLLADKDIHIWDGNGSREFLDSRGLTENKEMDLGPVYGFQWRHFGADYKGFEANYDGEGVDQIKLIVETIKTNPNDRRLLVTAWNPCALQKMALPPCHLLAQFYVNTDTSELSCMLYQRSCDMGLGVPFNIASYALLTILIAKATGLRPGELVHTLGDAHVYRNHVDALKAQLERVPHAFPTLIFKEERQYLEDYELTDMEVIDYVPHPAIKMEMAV
Sequence of TcDHFR (Q27793 whole entry): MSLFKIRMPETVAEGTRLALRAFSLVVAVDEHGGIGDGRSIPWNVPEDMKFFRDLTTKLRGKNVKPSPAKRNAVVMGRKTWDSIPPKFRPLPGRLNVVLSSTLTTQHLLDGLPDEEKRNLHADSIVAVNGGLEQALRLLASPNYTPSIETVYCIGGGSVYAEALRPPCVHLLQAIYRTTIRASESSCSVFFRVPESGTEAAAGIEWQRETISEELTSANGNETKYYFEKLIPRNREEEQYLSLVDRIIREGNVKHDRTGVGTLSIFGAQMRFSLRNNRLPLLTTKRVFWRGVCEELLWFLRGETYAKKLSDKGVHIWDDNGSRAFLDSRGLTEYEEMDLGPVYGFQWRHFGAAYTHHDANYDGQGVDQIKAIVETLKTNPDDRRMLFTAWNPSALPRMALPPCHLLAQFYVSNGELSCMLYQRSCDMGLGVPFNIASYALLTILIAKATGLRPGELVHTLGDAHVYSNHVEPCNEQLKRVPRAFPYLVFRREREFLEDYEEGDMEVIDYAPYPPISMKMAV

For `N=C(N)Nc1nc2ccccc2[nH]1` [2a, 2-Guanidinobenzimidazole], the Ki on hDHFR was 2.21 µM; at TbPTR1 it was 13.3 µM; on hTS it was over 500 µM; on TbDHFR, 0.029 µM; on TbTS it was 23.6 µM. Further, the EC50 in [1], in [2] (read-out: T. brucei EC50 (μM)) and in assay [2] (setting [5]) was over 20 µM in each case.
`Cc1ccc2nc(N)[nH]c(=O)c2c1Sc1ccncc1` [nolatrexed]: in the assay on T. brucei [3], the EC50 was about 32 µM.
In the case of `CCc1nc(N)nc(N)c1-c1ccc(Cl)cc1` [Pyr, pyrimethamine, reference compound], the EC50 was found to be 99.2 µM in assay [1], 17.3 µM in assay [2] (read-out: T. brucei EC50 (μM)) and 2.08 µM in assay [2] (setting [5]). The molecule further yielded a Ki on hTS of 11.8 µM.
As for `CC1(C)N=C(N)N=C(N)N1c1ccc(Cl)cc1` [Cyc, cycloguanil, reference compound], the inhibition constant (Ki) at TbPTR1 turned out to be 4.16 µM. Further, the EC50 in assay [1] was over 80 µM; with T. brucei [4], over 25 µM; in assay [2] (read-out: T. brucei EC50 (μM)) it was over 80 µM; in [2] (setting [5]), 27.2 µM.
As for `CCCCCCCCCCCCCCCCOP(=O)([O-])OCC[N+](C)(C)C` [MLF, miltefosine, reference compound], the EC50 in [1] was 10.9 µM.
`Cc1cc2nc(NC(=N)N)[nH]c2cc1C` [2g, 5,6-Dimethyl-2-guanidinobenzimidazole]: the Ki on hDHFR is 3.55 µM; at TbPTR1, 54 µM; on hTS, over 500 µM; at TbDHFR, 0.009 µM; at LmDHFR, 1.04 µM; at TbTS, 18.2 µM. In addition, the affinity at TcDHFR corresponds to a Ki of 0.6 µM. Moreover, the EC50 is over 20 µM in assay [1], 14.5 µM in [2] (read-out: T. brucei EC50 (μM)) and 13.8 µM in [2] (setting [5]). Also, the “drop-off in potency TcDHFR versus TbDHFR” value at TcDHFR (Ki TcDHFR versus Ki TbDHFR) is on record as 67 fold.
In the case of `N=C(N)Nc1nc2cc(Cl)c(Cl)cc2[nH]1` [2c, 5,6-Dichloro-2-guanidinobenzimidazole], the Ki at hDHFR was 1.51 µM; at TbPTR1, 3.23 µM; on hTS, over 500 µM; at TbDHFR, 0.66 µM; at LmDHFR, 1.58 µM; on TbTS it was 50.3 µM. The concentration for a half-maximal effect (EC50) in [1] turned out to be 22.5 µM; in assay [2] (read-out: T. brucei EC50 (μM)), 7.8 µM; in [2] (setting [5]), 6.52 µM.
As for `N=C(N)Nc1nc2cc(Cl)cc(Cl)c2[nH]1` [2d, 4,6-Dichloro-2-guanidinobenzimidazole], the Ki at hDHFR was 4.36 µM; on TbPTR1, 4.94 µM; at hTS, over 500 µM; at TbDHFR, 0.113 µM; on TbTS it was 20.3 µM. Also, the EC50 in assay [1] was 6.62 µM; in assay [2] (read-out: T. brucei EC50 (μM)), 2.91 µM; in [2] (setting [5]), 5.97 µM.
Consider `N=C(N)c1ccc(OCCCCCOc2ccc(C(=N)N)cc2)cc1` [PENT, pentamidine, reference compound], for which the EC50 in [2] (read-out: T. brucei EC50 (μM)) came to 0.0041 µM.
For `CN(Cc1cnc2nc(N)nc(N)c2n1)c1ccc(C(=O)N[C@@H](CCC(=O)O)C(=O)O)cc1` [MTX, methotrexate, reference compound], in assay [2] (T. brucei, 23.3 μM to 5.4 nM), the “EC50 enhancement in folate deficiency medium versus standard medium” value worked out at 4300 fold. For the same molecule, the EC50 in assay [2] (read-out: T. brucei EC50 (μM)) stood at 23.3 µM; in [2] (setting [5]) it was 0.0054 µM.

Values taken from paper PMC11537224 (ACS Infectious Diseases, 2024).
